Legend:
[1] = test system: panel of other cell types; test: Binding specificity: biopanning of HBOEC-selected phage clones on a panel of other cell types; set-up: species or system human; conditions: 1.10^11 phage, 1 hour at 4° C., FIG. 3
Procedure: Lymphocytes and neutrophils were obtained from the same preparation. Lymphocytes were collected from the supernatant of the cultured buffy coat mononuclear cells that were allowed to adhere for 48 hours. The cell concentration was adjusted to 1.10^5 cells per ml.
Neutrophils were collected from the lower portion of the density gradient preparation. The upper layers were removed and processed as described above. The neutrophil-rich Histopaque layer was transferred to a centrifuge tube and diluted in fresh RPMI to wash the cells free of Histopaque. The suspension was centrifuged at 700×g for 15 min at room temperature. The supernatant was aspirated and the pellet resuspended in 10 ml of RPMI and centrifuged at 700×g for 10 min at room temperature. Contaminating red cells were lysed by quickly re-suspending the pellet in sterile water at 4° C. After 30 sec an equal volume of 1.8% saline solution was added in order to return the solution to isotonicity. The suspension was then centrifuged for 10 min at 250×g at 4° C. The cell lysis step was repeated. The final pellet was re-suspended and concentration adjusted to 1.10^5 cells per ml.
(§1) HUVEC were from the American Type Culture Collection (ATCC, Manassas, Va.). Passages 4 to 8 were used in this study. HUVEC were cultured in EGM-MV medium (Cambrex) at 37° C. in an incubator with humid atmosphere and 5% CO2.
Peripheral blood human HL-60 promyelocytic cells from the American Type Culture Collection (ATCC) were cultured in RPMI 1640 medium supplemented with 20% fetal bovine serum.
The specificity of HBOEC-selected phage clones was determined by biopanning on a panel of other cell types. The biopanning procedure was carried as described above with the exception of including the pre-clearing incubation step.

[2] = test system: human blood outgrowth endothelial cells (HBOEC); test: Homogeneous phage recovery (relative binding) on HBOEC; conditions: for concentration dependence of homogeneous recovery (binding to HBOEC): 1.10^9, 1.10^10, 1.10^11 pfu, 1 h at 4° C.; for concentration dependence of homogeneous recovery (binding to HBOEC) / relative recovery / affinity-avidity among the four selected phage clones: FIG. 1B; for relative recovery / affinity-avidity among the four selected phage clones: four clones with different consensus motifs
Procedure: Cells at 80% confluence were detached by treating with 0.05% trypsin-EDTA, washed once with EGM-2 medium and resuspended in EGM-2 containing 1% BSA at 1.10^5 cells per ml. In the pre-clearing step, 1 ml of HUVEC suspension at 1.10^5 cells per ml were incubated with 10 μl of PhD-12 peptide phage display system (New England Biolabs, Beverly, Mass.) within 1.5 ml Eppendorf tube for 2 hours at 4° C.; the mixture was then centrifuged. In the screening step, the unbound phage pool remaining in the supernatant was transferred to a fresh tube and incubated with 1 ml of HBOEC at 1.10^5 cells per ml. After 1 hour incubation at 4° C., the cell-phage complexes were separated by centrifugation. Following five intensive washes with TBS-0.5% Tween-20 buffer the bound phage was non-specifically eluted with 0.2 M Glycine-HCl buffer (pH 2.2) for 10 min. The eluate was immediately neutralized by 1M Tris.HCl buffer (pH 9.0). An aliquot of the eluted phage was used for determining titer by plaque assay. The rest of the phage eluate was amplified in mid-log phase E. coli ER2738 (New England Biolabs), and purified by precipitation with polyethylene glycol. An aliquot of the amplified phage was subsequently re-applied to newly trypsinized cells for a total of three biopanning rounds and two amplification steps.
Once isolated individual phage clones were subjected to evaluation of relative binding. High titer stocks of homogeneous phage were generated. Serially diluted phage (1.10^9 pfu, 1.10^10 pfu, and 1.10^11 pfu) were incubated with HBOEC (1.10^5 cells) for 1 h at 4° C. and then subjected to the same wash protocol used for the selection experiments. In parallel the same procedure was carried in a blocked Eppendorf tube without HBOEC to test for non specific binding for each selected sequence to the plastic container. Binding ratio is defined as recovery of phage bound to the target cells normalized to the recovery of phage non-specifically bound to the plastic.

HUVEC = test: Cell binding assay: HUVEC attachment to peptide-modified substrates; type: cell-based, human; conditions: compared to RGE negative controls; FIG. 8D
Procedure: as §1
Peptide sequences were immobilized to methacrylic terpolymers via one step chain transfer controlled free radical polymerization as described by Fussell and Cooper (Fussell 2004a and Fussell 2004b). The monomers used in the reactions were n-hexyl methacrylate (HMA) (Alfa Aesar, Ward Hill, Mass.), methyl methacrylate (MMA) (ACROS Organics, Pittsburgh, Pa.), and methacrylic acid (MAA) (ACROS Organics, Pittsburgh, Pa.), with 2,2-azobisisobutyronitrile (AIBN) (Aldrich Chemical, Milwaukee, Wis.) as the initiator. The molar ratio of the monomers in the reaction mixture was HMA:MMA:MAA—20:78:2. The peptides were added with the monomers after the solvent was purged with argon. The reaction temperature for the polymerization was 55-60° C. and reactions were carried out overnight.
Peptide grafted materials were coated on round microscope cover glass slides. Glass slides were sterilized by immersion in 70% ethanol. […] Digital images were taken from 15 random fields per sample and quantified by computer assisted analysis.

Substance: MPTLTRAPHTAC (Human outgrowth endothelial cell-binding peptides isolated from phage library) [SEQ ID NO:37]
- recovery on cell types other than the target cells [1]: No significant recovery
- concentration dependence of homogeneous recovery (binding to HBOEC) [2]: bind HBOEC over a range of concentrations in a dose-dependent manner
- relative recovery / affinity-avidity among the four selected phage clones [2]: lowest affinity/avidity

Substance: SPPPSNAGSHHV (Human outgrowth endothelial cell-binding peptides isolated from phage library) [SEQ ID NO:32]
- recovery on cell types other than the target cells [1]: No significant recovery
- concentration dependence of homogeneous recovery (binding to HBOEC) [2]: bind HBOEC over a range of concentrations in a dose-dependent manner

Substance: SVPPRYTLTLQW (Human outgrowth endothelial cell-binding peptides isolated from phage library) [SEQ ID NO:7]
- recovery on cell types other than the target cells [1]: No significant recovery
- concentration dependence of homogeneous recovery (binding to HBOEC) [2]: bind HBOEC over a range of concentrations in a dose-dependent manner

Substance: TPSLEQRTVYAK (Human outgrowth endothelial cell-binding peptides isolated from phage library) [SEQ ID NO:17]
- recovery on cell types other than the target cells [1]: No significant recovery
- concentration dependence of homogeneous recovery (binding to HBOEC) [2]: bind HBOEC over a range of concentrations in a dose-dependent manner
- binding ratio (recovery of phage bound to target cells normalized to phage non-specifically bound to plastic) ([2]; 1.10^11 pfu homogeneous phage, 1.10^5 HBOEC, 1 hour at 4° C., FIG. 2): 43±20
- relative recovery among phage bearing the TP(S/T/G) motif ([2]; 1.10^11 pfu, FIG. 2): highest recovery
- relative recovery / affinity-avidity among the four selected phage clones [2]: highest recovery

Substance: fibronectin
- HUVEC attachment (HUVEC): statistically significant

— US8426367B2, “Peptides specific for human blood outgrowth endothelial cells” (The University of North Carolina at Chapel Hill, priority 2007, dated 2013)
